Assay results taken from ChEMBL document CHEMBL3272160, “Synthesis and some pharmacological properties of [1-(L-2-hydroxy-3-mercaptopropanoic acid), 4-threonine]oxytocin (hydroxy [4-thr]oxytocin), a peptide with strikingly high oxytocic potency and of [1-(L-2-hydroxy-3-mercaptopropanoic acid)]oxytocin (hydroxy-oxytocin)” (J Med Chem, 1976).
*1 amine or outer side, *2 acyl side, *3 side chain or, on linkers, in order; H or OH if unused. Where a SMILES comes first, the peptide text is derived from it. Bridges are numbered along the chain shown (N, C = ends). [ ]: non-standard residue; d: D form. Abu(4-yl) = O=C([C@H](CC[*:3])N[*:1])[*:2]; X1 = O=C([C@@H](O)CS[*:2])[*:1]; X2 = O=C(CCC[*:2])[*:1]; Mpa = O=C(O)CCS

Experiments:
[1] = biological target: T1, Oxytocin receptor (Rattus norvegicus) (UniProt P70536); assay: Activity at oxytocin receptor in rat uterus in presence of 0.5 mM Mg2+; type: tissue-based
T1 sequence (whole entry): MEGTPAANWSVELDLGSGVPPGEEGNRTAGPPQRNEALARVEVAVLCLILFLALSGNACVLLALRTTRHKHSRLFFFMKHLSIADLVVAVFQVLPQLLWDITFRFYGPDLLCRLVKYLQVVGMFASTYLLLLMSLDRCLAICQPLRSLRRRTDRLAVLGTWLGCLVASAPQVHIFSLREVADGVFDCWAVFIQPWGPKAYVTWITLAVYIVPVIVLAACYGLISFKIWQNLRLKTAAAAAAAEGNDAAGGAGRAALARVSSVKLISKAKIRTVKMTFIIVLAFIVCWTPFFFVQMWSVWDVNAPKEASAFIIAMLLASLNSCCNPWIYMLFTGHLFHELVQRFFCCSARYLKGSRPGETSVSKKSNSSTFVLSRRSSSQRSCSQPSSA

Rattus norvegicus [2] = species on record: Rattus norvegicus; assay: Antidiuretic activity in rat; type: ADME, organism-based, Urine; conditions: in vivo
Oryctolagus cuniculus = species on record: Oryctolagus cuniculus; assay: Oxytocic activity in rabbit assessed as milk ejection; type: functional
[3] = biological target: T1, Oxytocin receptor (Rattus norvegicus); assay: Activity at oxytocin receptor in rat uterus relative to oxytocin; type: tissue-based
[4] = Ratio of activity at oxytocin receptor in rat uterus to antidiuretic activity in rat; parameters: species or system Urine
Rattus norvegicus [5] = species on record: Rattus norvegicus; assay: Vasopressor activity in rat; type: ADME, organism-based; conditions: in vivo
[6] = biological target: T1, Oxytocin receptor (Rattus norvegicus); assay: Activity at oxytocin receptor in rat uterus; type: tissue-based
[7] = Ratio of activity at oxytocin receptor in rat uterus to vasopressor activity in rat
[8] = biological target: T1, Oxytocin receptor (Rattus norvegicus); assay: Activity at oxytocin receptor in rat mammary strip
Rattus norvegicus [9] = species on record: Rattus norvegicus; assay: Oxytocic activity in rat assessed as milk ejection; type: functional

SMILES | Activity [1] | Activity (Rattus norvegicus [2]) | Activity (Oryctolagus cuniculus) | Ratio [3] | Ratio [4] | Activity (Rattus norvegicus [5]) | Activity [6] | Ratio [7] | Activity [8] | Activity (Rattus norvegicus [9])
CC[C@H](C)[C@@H]1NC(=O)[C@H](Cc2ccc(O)cc2)NC(=O)CCSSC[C@H](C(=O)N2CCC[C@H]2C(=O)N[C@@H](CC(C)C)C(=O)NCC(N)=O)NC(=O)[C@H](CC(N)=O)NC(=O)[C@H](CCC(N)=O)NC1=O | 760 U/mg |  |  |  |  |  |  |  |  | 
CC[C@H](C)[C@@H]1NC(=O)[C@H](Cc2ccc(O)cc2)NC(=O)[C@@H](N)CSSC[C@@H](C(=O)N2CCC[C@H]2C(=O)N[C@@H](CC(C)C)C(=O)NCC(N)=O)NC(=O)[C@H](CC(N)=O)NC(=O)[C@H]([C@@H](C)O)NC1=O (H-CYITNCPLG-NH2; disulfide 1-6) | 719 U/mg | 1.8 U/mg | 543 U/mg | > 4 | 513 | 0.43 U/mg | 923 U/mg | 2146 |  | 
CC[C@H](C)[C@@H]1NC(=O)[C@H](Cc2ccc(O)cc2)NC(=O)[C@@H](N)CCSC[C@@H](C(=O)N2CCC[C@H]2C(=O)N[C@@H](CC(C)C)C(=O)NCC(N)=O)NC(=O)[C@H](CC(N)=O)NC(=O)[C@H](CCC(N)=O)NC1=O (H-[Abu(4-yl)]YIQNCPLG-NH2; thioether 1-6) |  | 9.3 U/mg |  |  | 79 | 2.95 U/mg | 734 U/mg | 249 | 177 U/mg | 
CC[C@H](C)[C@@H]1NC(=O)[C@H](Cc2ccc(O)cc2)NC(=O)[C@@H](O)CSSC[C@@H](C(=O)N2CCC[C@H]2C(=O)N[C@@H](CC(C)C)C(=O)NCC(N)=O)NC(=O)[C@H](CC(N)=O)NC(=O)[C@H](CCC(N)=O)NC1=O (YIQNCPLG-NH2; linker N-5 via X1) | 868 U/mg | 16.6 U/mg |  | 2.45 | 77 | 14.7 U/mg | 1280 U/mg | 50 | 363 U/mg | 694 U/mg
CC[C@H](C)[C@@H]1NC(=O)[C@H](Cc2ccc(O)cc2)NC(=O)CCCSC[C@@H](C(=O)N2CCC[C@H]2C(=O)N[C@@H](CC(C)C)C(=O)NCC(N)=O)NC(=O)[C@H](CC(N)=O)NC(=O)[C@H](CCC(N)=O)NC1=O (YIQNCPLG-NH2; linker N-5 via X2) | 921 U/mg | 24.1 U/mg |  | 4 | 79 | 17.5 U/mg | 1900 U/mg | 108 | 581 U/mg | 
CC[C@H](C)[C@@H]1NC(=O)[C@H](Cc2ccc(O)cc2)NC(=O)[C@@H](O)CSSC[C@@H](C(=O)N2CCC[C@H]2C(=O)N[C@@H](CC(C)C)C(=O)NCC(N)=O)NC(=O)[C@H](CC(N)=O)NC(=O)[C@H]([C@@H](C)O)NC1=O (YITNCPLG-NH2; linker N-5 via X1) | 937 U/mg | 5.3 U/mg |  | 8 | 788 | 4.92 U/mg | 4180 U/mg | 849 | 378 U/mg | 808 U/mg
CC[C@H](C)[C@@H]1NC(=O)[C@H](Cc2ccc(O)cc2)NC(=O)CCSSC[C@@H](C(=O)N2CCC[C@H]2C(=O)N[C@@H](CC(C)C)C(=O)NCC(N)=O)NC(=O)[C@H](CC(N)=O)NC(=O)[C@H]([C@@H](C)O)NC1=O ([Mpa]YITNCPLG-NH2; disulfide 1-6) | 242 U/mg | 0.9 U/mg | 385 U/mg |  | 165 | < 0.1 U/mg | 149 U/mg |  |  | 
CC[C@H](C)[C@@H]1NC(=O)[C@H](Cc2ccc(O)cc2)NC(=O)CCSSC[C@@H](C(=O)N2CCC[C@H]2C(=O)N[C@@H](CC(C)C)C(=O)NCC(N)=O)NC(=O)[C@H](CC(N)=O)NC(=O)[C@H](CCC(N)=O)NC1=O [DEMOXYTOCIN] |  | 19 U/mg | 541 U/mg |  | 42 | 1.44 U/mg |  | 558 |  | 
CC[C@H](C)[C@@H]1NC(=O)[C@H](Cc2ccc(O)cc2)NC(=O)[C@@H](N)CSSC[C@@H](C(=O)N2CCC[C@H]2C(=O)N[C@@H](CC(C)C)C(=O)NCC(N)=O)NC(=O)[C@H](CC(N)=O)NC(=O)[C@H](CCC(N)=O)NC1=O [OXYTOCIN] | 486 U/mg | 4 U/mg | 474 U/mg | > 7 |  |  | 520 U/mg |  |  | 
